Data: patent US20110059886A1, “HCV NS3-NS4A Protease Inhibition” (priority 2004, published 2011)
Read-outs that look alike come from different tables or passages of the source. Non-standard residues stand in square brackets, D forms with d. Residues, ends and D or L forms follow the SMILES beside them. Abu = CC[C@H](N)C(=O)O

Legend:
[1] = target: NS5AB peptide substrate, based on the NS5A/NS5B cleavage site for genotype 1a HCV
[2] = target: RET-S1 fluorescent peptide (AnaSpec, San Jose, Calif.)
[3] = target: T1, HCV NS3 protease genotype 2a (Hepatitis C virus genotype 2a, UniProt P26660, L1043K/T1046A/V1183I); assay: Progress curve analysis of slow binding inhibition; assay type: biochemical
T1 construct: DNA fragment encoding residues Ala^1-Ser^181 of several isolates of genotype 2a or 2b; hexa-histidine (C); made in house; host or cells: E. coli BL21/DE3 pLysS
Excerpt: (§5) F(t)=Vs×t+(Vi−Vs)×(1−exp (−kobs×t))/kobs+C Equation 1:
(§6) kobs=koff+(kon×[I])/(1+[S]/Km) Equation 2:

[4] = tested on: Cells containing hepatitis C virus (HCV) replicon; assay: HCV replicon cell assay; assay type: cell-based; details: 48 h, read-out: (concentration at which 50% inhibition of HCV RNA level is observed)
Experimental: Cells were obtained according to the method of Lohmannn et al., Science, 285, pp. 110-113 (1999). Cells containing hepatitis C virus (HCV) replicon were maintained in DMEM containing 10% fetal bovine serum (FBS), 0.25 mg per ml of G418, with appropriate supplements (media A).
On day 1, replicon cell monolayer was treated with a trypsin:EDTA mixture, removed, and then media A was diluted into a final concentration of 100,000 cells per ml wit. 10,000 cells in 100 ul were plated into each well of a 96-well tissue culture plate, and cultured overnight in a tissue culture incubator at 37° C.
On day 2, compounds (in 100% DMSO) were serially diluted into DMEM containing 2% FBS, 0.5% DMSO, with appropriate supplements (media B). The final concentration of DMSO was maintained at 0.5% throughout the dilution series. […]
A Taqman real-time RT-PCR quantification assay was set up with two sets of specific primers and probe. […] Total RNA extractants from treated HCV replicon cells was added to the PCR reactions for quantification of both HCV and BVDV RNA in the same PCR well. […] The level of HCV RNA in each well was calculated according to a standard curve run in the same PCR plate. The percentage of inhibition or decrease of HCV RNA level due to compound treatment was calculated using the DMSO or no compound control as 0% of inhibition. […]

[5] = target: T1, HCV NS3 protease genotype 2a; assay: HPLC peptide cleavage assay, apparent Ki; assay type: biochemical; details: 15 min preincubation, NS5AB at Km
Excerpt: (§1) Peptide sequences are shown below.
(§2) Biophys. Acta. 874, pp. 44-53 (1986)].

[6] = target: T2, HCV NS3 protease genotype 3a (Hepatitis C virus genotype 3a, UniProt Q81258, I1084M/L1045K/S1134A/S1198A); assay: HPLC peptide cleavage assay, apparent Ki; assay type: biochemical; details: 15 min preincubation, NS5AB at Km
T2 construct: DNA fragment encoding residues Ala^1-Ser^181 of several isolates of genotype 2a or 2b; hexa-histidine (C); made in house; host or cells: E. coli BL21/DE3 pLysS
T2 sequence (Q81258 1033-1213, looked up, stated change not applied, other chains not shown): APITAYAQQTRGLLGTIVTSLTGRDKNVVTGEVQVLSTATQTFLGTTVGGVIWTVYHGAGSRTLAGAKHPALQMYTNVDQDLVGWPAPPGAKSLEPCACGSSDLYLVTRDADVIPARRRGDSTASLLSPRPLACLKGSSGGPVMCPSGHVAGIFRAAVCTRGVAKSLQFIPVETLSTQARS
Excerpt: as §1, §2

[7] = target: T2, HCV NS3 protease genotype 3a; assay: Fluorescence peptide assay, potency with extended incubation; assay type: biochemical; details: IC50 after extended preincubation taken as Ki of tightly bound complex, read-out: Ki following extended incubation
[8] = target: T1, HCV NS3 protease genotype 2a; assay: as above; assay type: biochemical; details: IC50 after extended preincubation taken as Ki of tightly bound complex, read-out: Ki following extended incubation
[9] = target: T2, HCV NS3 protease genotype 3a; assay: Progress curve analysis of slow binding inhibition; assay type: biochemical
Excerpt: as §5, §6

[10] = target: T1, HCV NS3 protease genotype 2a; assay: Inhibition constant from steady-state rates of progress curves; assay type: biochemical; details: steady-state portion of progress curves, Morrison fit, read-out: Ki using steady-state rates
Experimental: (§3) The rates of onset of slow binding inhibition were determined by a modification of the method for measurement of progress curves described by Narjes et al. [Narjes F. et al., Biochemistry 39, pp. 1849-1861 (2000)]. […] The reaction was initiated by addition of an aliquot of pre-heated enzyme stock to the compound-substrate mixture to yield final concentrations of 6 to 12 μM RET-S1 and 0.5 nM to 4 nM HCV NS3 protease. […] T., Adv. Enzymol. Relat. Areas Mol. Biol. 61, pp. 201-301 (1988)].
as §2

[11] = target: T2, HCV NS3 protease genotype 3a; assay: as above; assay type: biochemical; details: steady-state portion of progress curves, Morrison fit, read-out: Ki using steady-state rates
Experimental: as §3, §2

NS3/4A protease = details: WO 02/018369, cited from earlier work
NS3-4A serine protease = NS3-4A serine protease (Hepatitis C virus genotype 1a, UniProt P27958); assay: Enzyme assays with KK-4A peptide and FRET substrate, mode of binding
Chain of NS3-4A serine protease (P27958 1027-1208, other chains not shown): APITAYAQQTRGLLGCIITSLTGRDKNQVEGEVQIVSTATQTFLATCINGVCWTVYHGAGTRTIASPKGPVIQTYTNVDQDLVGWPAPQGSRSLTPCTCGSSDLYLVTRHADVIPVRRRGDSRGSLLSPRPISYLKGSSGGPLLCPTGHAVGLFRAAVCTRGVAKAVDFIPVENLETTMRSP

[12] = target: T1, HCV NS3 protease genotype 2a; assay: Kinetic parameters of NS5AB substrate, HPLC peptide cleavage assay; assay type: biochemical
Experimental: as §1
(§4) For determination of the kinetic parameters Km and Vmax, the NS5AB substrate was varied between 3 μM and 200 μM. The ratio of the product peak area to the reaction time yielded a rate of enzyme catalyzed hydrolysis. These rate vs. substrate concentration data points were fit to the Michaelis-Menten equation using non-linear regression. The value of kcat was determined from Vmax using the nominal protease concentration and a fully cleaved substrate peptide as an instrument calibration standard.

[13] = target: T2, HCV NS3 protease genotype 3a; assay: as above; assay type: biochemical
Experimental: as §1, §4

[14] = tested on: CC[C@H](NC(=O)[C@@H](NC(=O)[C@@H](NC(=O)[C@H](CC(=O)O)NC(=O)[C@@H](N)CCC(=O)O)C(C)C)C(C)C)C(=O)N[C@@H](CS)C(=O)N[C@@H](CO)C(=O)N[C@@H](CCSC)C(=O)N[C@@H](CO)C(=O)N[C@@H](Cc1ccc(O)cc1)C(=O)O; assay: purified protein, by the assay type; details: other: genotype 1a; NS5AB substrate; pH 7.8; 40.0 °C

HCV NS3 serine protease domain, genotype 2a consensus sequence (enzyme)
kcat/Km [1]: 31000 M⁻¹ s⁻¹ | kcat/Km [2]: 65000 M⁻¹ s⁻¹

CCC[C@H](NC(=O)[C@@H]1[C@H]2CCC[C@H]2CN1C(=O)[C@@H](NC(=O)[C@@H](NC(=O)c1cnccn1)C1CCCCC1)C(C)(C)C)C(=O)C(=O)NC1CC1 [VX-950]
Ki [3]: 67 nM | IC50 [4]: 354 nM | Ki [5]: 40 nM | Ki [6]: 650 nM | Ki [7]: 460 nM | Ki [8]: 37 nM | Ki [9]: 440 nM | Ki [10]: 32 nM | Ki [11]: 270 nM | Ki (NS3/4A protease; read-out: Ki): 8 nM | Ki (NS3/4A protease; read-out: steady state binding constant (ki*)): 3 nM | mode of binding to the NS3-4A serine protease (NS3-4A serine protease): reversible, covalent, competitive, tight and slow binding

CC[C@H](NC(=O)[C@@H](NC(=O)[C@@H](NC(=O)[C@H](CC(=O)O)NC(=O)[C@@H](N)CCC(=O)O)C(C)C)C(C)C)C(=O)N[C@@H](CS)C(=O)N[C@@H](CO)C(=O)N[C@@H](CCSC)C(=O)N[C@@H](CO)C(=O)N[C@@H](Cc1ccc(O)cc1)C(=O)O [NS5AB, NH2-EDVV-(alpha)Abu-CSMSY-COOH] (H-EDVV[Abu]CSMSY-OH)
Km [12]: 11 µM | Km [13]: 70 µM

HCV NS3 protease genotype 1a (Hepatitis C virus (isolate H77))
Km [14]: 25 µM | kcat/Km [14]: 30000 M⁻¹ s⁻¹

HCV NS3 protease, genotype 1a (enzyme)
kcat/Km [1]: 30000 M⁻¹ s⁻¹ | kcat/Km [2]: 170000 M⁻¹ s⁻¹

HCV NS3 serine protease domain, genotype 3a consensus sequence (enzyme)
kcat/Km [1]: 5200 M⁻¹ s⁻¹ | kcat/Km [2]: 22000 M⁻¹ s⁻¹
